BindingDB's records for doi:10.1111/cbdd.12458 (Pontificia Universidad Catolica De Chile, 2015)

Tests used:
[1] = target: T1, Amine oxidase [flavin-containing] A (Rattus norvegicus, UniProt P21396); assay: Monoamine Oxidase Inhibition Assay
T1 sequence (P21396 whole entry): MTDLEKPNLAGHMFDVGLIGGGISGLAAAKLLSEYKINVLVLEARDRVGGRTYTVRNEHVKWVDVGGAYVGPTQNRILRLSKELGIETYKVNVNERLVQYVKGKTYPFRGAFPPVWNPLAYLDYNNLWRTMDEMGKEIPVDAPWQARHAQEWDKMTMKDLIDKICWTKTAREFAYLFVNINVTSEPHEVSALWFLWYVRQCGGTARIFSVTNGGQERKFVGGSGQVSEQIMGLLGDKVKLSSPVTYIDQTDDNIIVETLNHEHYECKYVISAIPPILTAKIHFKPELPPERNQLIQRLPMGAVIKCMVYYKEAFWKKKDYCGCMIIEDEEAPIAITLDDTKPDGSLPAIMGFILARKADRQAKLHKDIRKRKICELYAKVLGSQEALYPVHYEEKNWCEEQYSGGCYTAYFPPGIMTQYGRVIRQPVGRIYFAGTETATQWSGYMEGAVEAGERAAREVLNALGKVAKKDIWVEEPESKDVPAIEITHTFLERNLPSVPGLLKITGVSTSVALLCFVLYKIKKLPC
Experimental: (§1) Briefly, a crude rat brain mitochondrial suspension (male Sprague Dawley rats weighing 180 220 g, killed by decapitation) was used as protein source. Serotonin(5-HT, 100 µM) and 4-dimethylaminophenethylamine (DMAPEA, 5 µM) were used as selective substrates for MAO-A and MAO-B, respectively. The reaction mixtures were analyzed with a Merck-Hitachi HPLC (Tokyo, Japan), employing a C18 reverse phase column (Lichrospher 250 9 4.6 mm, 5 µm) and an amperometric detector (Merck Recipe L3500A). Tetrahydrofuran and acetonitrile (Merck) were used as eluents.

[2] = target: T2, Amine oxidase [flavin-containing] B (Rattus norvegicus, UniProt P19643); assay: Monoamine Oxidase Inhibition Assay
T2 sequence (P19643 whole entry): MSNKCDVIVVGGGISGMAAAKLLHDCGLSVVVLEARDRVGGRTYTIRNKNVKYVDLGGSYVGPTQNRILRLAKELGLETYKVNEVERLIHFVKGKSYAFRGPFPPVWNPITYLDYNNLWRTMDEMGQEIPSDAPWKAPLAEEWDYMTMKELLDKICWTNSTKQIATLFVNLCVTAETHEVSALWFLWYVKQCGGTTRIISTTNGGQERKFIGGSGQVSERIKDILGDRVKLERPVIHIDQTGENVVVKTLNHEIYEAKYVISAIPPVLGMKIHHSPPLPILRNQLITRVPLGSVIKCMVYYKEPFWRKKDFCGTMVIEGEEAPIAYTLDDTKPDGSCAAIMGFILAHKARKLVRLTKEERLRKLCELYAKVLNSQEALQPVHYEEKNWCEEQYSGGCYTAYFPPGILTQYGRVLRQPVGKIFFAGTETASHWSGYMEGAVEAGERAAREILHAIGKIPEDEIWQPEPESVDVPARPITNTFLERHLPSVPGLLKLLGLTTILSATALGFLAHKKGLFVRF
Experimental: as §1

Row | Compound | IC50 [1] [µM] | IC50 [2] [µM]
1 | COc1ccc(OC)c(/C=C/C(=O)c2c(O)cccc2OC)c1 [(E)-3-(2,5-Dimethoxyphenyl)-1-(2-hydroxy-6-methoxyphenyl)prop-2-en-1-one (3a)] | > 100 | 10.9
2 | COc1ccc(O)c(C(=O)/C=C/c2cc(OC)c(Br)cc2OC)c1 [(E)-3-(4-Bromo-2,5-dimethoxyphenyl)-1-(2-hydroxy-5-methoxyphenyl)prop-2-en-1-one (3h)] | > 100 | 2.8
3 | COc1ccc2c(c1)C(=O)/C(=C/c1cccc(OC)c1OC)O2 [(Z)-2-(2,3-Dimethoxybenzylidene)-5-methoxybenzofuran-3(2H)-one (4g)] | > 100 | 11.6
4 | COc1ccc(O)c(C(=O)/C=C/c2cccc(OC)c2OC)c1 [(E)-3-(2,3-Dimethoxyphenyl)-1-(2-hydroxy-5-methoxyphenyl)prop-2-en-1-one (3g)] | > 100 | 6.8
5 | COc1cc(/C=C/C(=O)c2c(O)cccc2OC)c(OC)cc1Br [(E)-3-(4-Bromo-2,5-dimethoxyphenyl)-1-(2-hydroxy-6-methoxyphenyl)prop-2-en-1-one (3d)] | > 100 | 6.1

The remaining lines, values ahead:

Row | IC50 [1] [µM] | IC50 [2] [µM] | Compound
6 | > 100 | 17.8 | COc1ccc(OC)c(/C=C2\Oc3cccc(OC)c3C2=O)c1 [(Z)-2-(2,5-Dimethoxybenzylidene)-4-methoxybenzofuran-3(2H)-one (4a)]
7 | > 100 | 13.5 | COc1ccc2c(c1)C(=O)/C(=C/c1cc(OC)c(Br)cc1OC)O2 [(Z)-2-(4-Bromo-2,5-dimethoxybenzylidene)-5-methoxybenzofuran-3(2H)-one (4h)]
8 | > 100 | 26.3 | COc1cc(/C=C2\Oc3cccc(OC)c3C2=O)c(OC)cc1Br [(Z)-2-(4-Bromo-2,5-dimethoxybenzylidene)-4-methoxybenzofuran-3(2H)-one (4d)]
